Experiments:
Format in all cases: in vivo
[1] = tested on: barnyardgrass (Echinochloa crus-galli); experiment: Test A postemergence application, visual injury rating; settings: approx. 10 d, 0 = no effect, 100 = complete control
In short: (§1)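 Rated visually against untreated controls after approx. 10 d in greenhouse, scale 0 = no effect, 100 = complete control. Seeded loam/sand blend given directed soil spray preemergence, or plants sprayed at one- to two-leaf stage, 2-10 cm tall; surfactant-containing non-phytotoxic solvent formulation.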

[2] = tested on: ryegrass, Italian (Italian ryegrass, Lolium multiflorum); experiment: as above; settings: approx. 10 d, 0 = no effect, 100 = complete control
In short: as §1

[3] = tested on: ragweed (common ragweed, Ambrosia elation); experiment: as above; settings: approx. 10 d, 0 = no effect, 100 = complete control
In short: as §1

[4] = tested on: kochia (Kochia scoparia); experiment: as above; settings: approx. 10 d, 0 = no effect, 100 = complete control
In short: as §1

[5] = tested on: galium (catchweed bedstraw, Galium aparine); experiment: as above; settings: approx. 10 d, 0 = no effect, 100 = complete control
In short: as §1

[6] = tested on: blackgrass (Alopecurus myosuroides); experiment: as above; settings: approx. 10 d, 0 = no effect, 100 = complete control
In short: as §1

[7] = tested on: wheat (Triticum aestivum); experiment: as above; settings: approx. 10 d, 0 = no effect, 100 = complete control
In short: as §1

[8] = tested on: pigweed (Amaranthus retroflexus); experiment: as above; settings: approx. 10 d, 0 = no effect, 100 = complete control
In short: as §1

[9] = tested on: foxtail, giant (giant foxtail, Setaria faberii); experiment: as above; settings: approx. 10 d, 0 = no effect, 100 = complete control
In short: as §1

[10] = tested on: corn (Zea mays); experiment: as above; settings: approx. 10 d, 0 = no effect, 100 = complete control
In short: as §1

[11] = tested on: barnyardgrass (Echinochloa crus-galli); experiment: Test B flooded paddy test, visual plant response rating; settings: 250 g ai/ha; applied to paddy water at 2-leaf stage; rated after 13 to 15 days; scale 0 to 100, 0 is no effect, 100 is complete control
In short: (§2)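 Pots flooded to 3 cm above soil at treatment; compound applied directly into paddy water, depth held throughout. Greenhouse for 13 to 15 days, then visual rating versus untreated controls on a 0–100 scale (0 no effect, 100 complete control); dash means no result.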

[12] = tested on: ducksalad (Heteranthera limosa); experiment: as above; settings: 250 g ai/ha; applied to paddy water at 2-leaf stage; rated after 13 to 15 days; scale 0 to 100, 0 is no effect, 100 is complete control
In short: as §2

[13] = tested on: rice (Oryza sativa); experiment: as above; settings: 250 g ai/ha; applied to paddy water at 2-leaf stage; rated after 13 to 15 days; scale 0 to 100, 0 is no effect, 100 is complete control
In short: as §2

[14] = tested on: sedge, umbrella (small-flower umbrella sedge, Cyperus difformis); experiment: as above; settings: 250 g ai/ha; applied to paddy water at 2-leaf stage; rated after 13 to 15 days; scale 0 to 100, 0 is no effect, 100 is complete control
In short: as §2

[15] = tested on: barnyardgrass (Echinochloa crus-galli); experiment: Test A preemergence, directed soil spray, visual injury rating; settings: approx. 10 d, 0 = no effect, 100 = complete control
In short: as §1

[16] = tested on: ryegrass, Italian (Italian ryegrass, Lolium multiflorum); experiment: as above; settings: approx. 10 d, 0 = no effect, 100 = complete control
In short: as §1

[17] = tested on: ragweed (common ragweed, Ambrosia elation); experiment: as above; settings: approx. 10 d, 0 = no effect, 100 = complete control
In short: as §1

[18] = tested on: kochia (Kochia scoparia); experiment: as above; settings: approx. 10 d, 0 = no effect, 100 = complete control
In short: as §1

[19] = tested on: pigweed (Amaranthus retroflexus); experiment: as above; settings: approx. 10 d, 0 = no effect, 100 = complete control
In short: as §1

[20] = tested on: foxtail, giant (giant foxtail, Setaria faberii); experiment: as above; settings: approx. 10 d, 0 = no effect, 100 = complete control
In short: as §1

| SMILES | Barnyardgrass plant response rating (0 to 100 scale) ([1]; 125 g ai/ha) | Barnyardgrass plant response rating (0 to 100 scale) ([1]; 500 g ai/ha) | Ryegrass, Italian plant response rating (0 to 100 scale) ([2]; 125 g ai/ha) | Ryegrass, Italian plant response rating (0 to 100 scale) ([2]; 500 g ai/ha) | Ragweed plant response rating (0 to 100 scale) ([3]; 125 g ai/ha) | Ragweed plant response rating (0 to 100 scale) ([3]; 500 g ai/ha) | Kochia plant response rating (0 to 100 scale) ([4]; 125 g ai/ha) | Kochia plant response rating (0 to 100 scale) ([4]; 500 g ai/ha) | Galium plant response rating (0 to 100 scale) ([5]; 125 g ai/ha) | Galium plant response rating (0 to 100 scale) ([5]; 500 g ai/ha) | Blackgrass plant response rating (0 to 100 scale) ([6]; 125 g ai/ha) | Blackgrass plant response rating (0 to 100 scale) ([6]; 500 g ai/ha) | Wheat plant response rating (0 to 100 scale) ([7]; 125 g ai/ha) | Wheat plant response rating (0 to 100 scale) ([7]; 500 g ai/ha) | Pigweed plant response rating (0 to 100 scale) ([8]; 125 g ai/ha) | Pigweed plant response rating (0 to 100 scale) ([8]; 500 g ai/ha) | Foxtail, Giant plant response rating (0 to 100 scale) ([9]; 125 g ai/ha) | Foxtail, Giant plant response rating (0 to 100 scale) ([9]; 500 g ai/ha) | Corn plant response rating (0 to 100 scale) ([10]; 125 g ai/ha) | Corn plant response rating (0 to 100 scale) ([10]; 500 g ai/ha) | other results |
| --- | --- | --- | --- | --- | --- | --- | --- | --- | --- | --- | --- | --- | --- | --- | --- | --- | --- | --- | --- | --- | --- |
| O=C(Nc1cccc(F)c1F)C1c2nnc(C(F)(F)F)n2CC1c1ccc(C(F)(F)F)cc1 (stereo not drawn) [Compound 22, N-(2,3-difluorophenyl)-6,7-dihydro-3-(trifluoromethyl)-6-[4-(trifluoromethyl)phenyl]-5H-pyrrolo[2,1-c]-1,2,4-triazole-7-carboxamide] | 0 | 0 | 0 | 0 | 0 | 0 | 0 | 0 | 0 | 0 | 0 | 0 | 0 | 0 | 0 | 0 | 0 | 0 | 0 | 0 | Plant response rating, Flood, Barnyardgrass [11]: 0; Plant response rating, Flood, Ducksalad [12]: 30; Plant response rating, Flood, Rice [13]: 0; Plant response rating, Flood, Sedge, Umbrella [14]: 0; Barnyardgrass plant response rating (0 to 100 scale) ([15]; 125 g ai/ha): 0; Barnyardgrass plant response rating (0 to 100 scale) ([15]; 500 g ai/ha): 20; Ryegrass, Italian plant response rating (0 to 100 scale) ([16]; 125 g ai/ha): 0; Ryegrass, Italian plant response rating (0 to 100 scale) ([16]; 500 g ai/ha): 0; Ragweed plant response rating (0 to 100 scale) ([17]; 125 g ai/ha): 0; Ragweed plant response rating (0 to 100 scale) ([17]; 500 g ai/ha): 0; Kochia plant response rating (0 to 100 scale) ([18]; 125 g ai/ha): 0; Kochia plant response rating (0 to 100 scale) ([18]; 500 g ai/ha): 0; Pigweed plant response rating (0 to 100 scale) ([19]; 125 g ai/ha): 0; Pigweed plant response rating (0 to 100 scale) ([19]; 500 g ai/ha): 0; Foxtail, Giant plant response rating (0 to 100 scale) ([20]; 125 g ai/ha): 0; Foxtail, Giant plant response rating (0 to 100 scale) ([20]; 500 g ai/ha): 30 |
| CCc1ccc(C2Cn3c(C)nnc3C2C(=O)Nc2cccc(F)c2F)cc1 (stereo not drawn) [Compound 23] | 50 | 90 | 0 | 0 | 0 | 0 | 30 | 30 | 0 | 30 | 0 | 20 | 0 | 0 | 0 | 0 | 30 | 70 | 0 | 20 | Plant response rating, Flood, Barnyardgrass [11]: 0; Plant response rating, Flood, Ducksalad [12]: 80; Plant response rating, Flood, Rice [13]: 0; Plant response rating, Flood, Sedge, Umbrella [14]: 0; Barnyardgrass plant response rating (0 to 100 scale) ([15]; 125 g ai/ha): 60; Barnyardgrass plant response rating (0 to 100 scale) ([15]; 500 g ai/ha): 90; Ryegrass, Italian plant response rating (0 to 100 scale) ([16]; 125 g ai/ha): 0; Ryegrass, Italian plant response rating (0 to 100 scale) ([16]; 500 g ai/ha): 0; Ragweed plant response rating (0 to 100 scale) ([17]; 125 g ai/ha): 0; Ragweed plant response rating (0 to 100 scale) ([17]; 500 g ai/ha): 0; Kochia plant response rating (0 to 100 scale) ([18]; 125 g ai/ha): 20; Kochia plant response rating (0 to 100 scale) ([18]; 500 g ai/ha): 40; Pigweed plant response rating (0 to 100 scale) ([19]; 125 g ai/ha): 0; Pigweed plant response rating (0 to 100 scale) ([19]; 500 g ai/ha): 20; Foxtail, Giant plant response rating (0 to 100 scale) ([20]; 125 g ai/ha): 70; Foxtail, Giant plant response rating (0 to 100 scale) ([20]; 500 g ai/ha): 90 |
| Cc1nnc2n1CC(c1ccc(C(F)(F)F)cc1)C2C(=O)Nc1ccccc1F (stereo not drawn) [Compound 24, N-(2-fluorophenyl)-6,7-dihydro-3-methyl-6-[4-(trifluoromethyl)phenyl]-5H-pyrrolo[2,1-c]-1,2,4-triazole-7-carboxamide] | 30 | 80 | 0 | 20 | 0 | 0 | 0 | 0 | 0 | 60 | 0 | 50 | 0 | 30 | 0 | 20 | 40 | 80 | 0 | 40 | Plant response rating, Flood, Barnyardgrass [11]: 0; Plant response rating, Flood, Ducksalad [12]: 0; Plant response rating, Flood, Rice [13]: 0; Plant response rating, Flood, Sedge, Umbrella [14]: 0; Barnyardgrass plant response rating (0 to 100 scale) ([15]; 125 g ai/ha): 0; Barnyardgrass plant response rating (0 to 100 scale) ([15]; 500 g ai/ha): 40; Ryegrass, Italian plant response rating (0 to 100 scale) ([16]; 125 g ai/ha): 0; Ryegrass, Italian plant response rating (0 to 100 scale) ([16]; 500 g ai/ha): 30; Ragweed plant response rating (0 to 100 scale) ([17]; 125 g ai/ha): 0; Ragweed plant response rating (0 to 100 scale) ([17]; 500 g ai/ha): 30; Kochia plant response rating (0 to 100 scale) ([18]; 125 g ai/ha): 0; Kochia plant response rating (0 to 100 scale) ([18]; 500 g ai/ha): 60; Pigweed plant response rating (0 to 100 scale) ([19]; 125 g ai/ha): 0; Pigweed plant response rating (0 to 100 scale) ([19]; 500 g ai/ha): 20; Foxtail, Giant plant response rating (0 to 100 scale) ([20]; 125 g ai/ha): 30; Foxtail, Giant plant response rating (0 to 100 scale) ([20]; 500 g ai/ha): 90 |

— patent US10442807B2, “Aryl substituted bicyclic compounds as herbicides” (FMC Corporation, priority 2015, dated 2019)
